Reference: US5290789A, “Penta and tetrasubstituted piperidines and compositions and method of treating psychosis” (Sterling Wintrop Inc., priority 1992, dated 1994)
Where two headings read alike, the source gives them in different places.

Tests used:
sigma receptors [1] = biological target: T1, sigma receptors (Cavia porcellus, UniProt Q60492); assay: sigma receptor binding, [^3 H]-(+)-pentazocine, guinea pig brain membranes; details: for inhibition at 10 µM: 2.5 h, inhibition of binding at 10 μM, [^3 H]-(+)-pentazocine approximately 0.5 nM, read-out: [^3 H] (+)-Pentazocine Percent Inhibition
T1 construct: Brain tissue was prepared from male Hartley guinea pigs; from tissue; host or cells: guinea pig brain membranes
T1 sequence (Q60492 whole entry): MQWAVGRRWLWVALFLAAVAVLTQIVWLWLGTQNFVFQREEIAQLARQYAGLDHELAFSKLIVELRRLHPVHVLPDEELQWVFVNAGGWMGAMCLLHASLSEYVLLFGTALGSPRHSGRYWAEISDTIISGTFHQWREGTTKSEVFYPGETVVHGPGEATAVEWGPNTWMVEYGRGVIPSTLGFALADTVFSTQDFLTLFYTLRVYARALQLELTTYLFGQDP
Experimental: (§1) Brain tissue was prepared from male Hartley guinea pigs (Hazelton Labs, Denver, Pa.) which were anesthetized with CO2 and sacrificed by decapitation. All animal care and use procedures were in accord with the "Guide for the Care and Use of Laboratory Animals" (NIH Publ. No. 86-23, 1985). Homogenization was performed in 10 volumes (wt/vol) of 0.32 M sucrose with a Brinkmann Polytron at setting 5, 30 sec. The homogenate was centrifuged at 900×g for 10 min at 4° C., and the supernatant was collected and centrifuged at 22,000×g for 20 min at 4° C. The pellet was resuspended in 10 volumes of Tris-HCl buffer (50 mm, pH 7.4), incubated at 37° C. for 30 min, and centrifuged at 22,000×g for 20 min at 4° C. Following this, the pellet was resuspended in Tris buffer and frozen in 5-10 mL aliquots corresponding to a tissue concentration of 100 mg/ml, at -70° C. Binding characteristics of the membranes were stable for at least one month when stored at -70° C.
On the day of the assay, membrane aliquots were thawed, resuspended in fresh Tris-HCl buffer and stored on ice until use. Each assay tube contained 100 μL of [^3 H]-(+)-pentazocine at a final concentration of approximately 0.5 nM or 100 μL of [^3 H)di(2-tolyl)guanidine (DTG) at a final concentration of approximately 4 nM, 100 μL of various concentrations of the compounds of interest, 500 μL of the tissue suspension and 300 μL of buffer to a final assay volume of 1 mL and a final tissue concentration of approximately 8 mg/tube, corresponding to approximately 0.15 mg protein/tube. Non-specific binding was defined by addition of a final concentration of 1 μM haloperidol to blank tubes for [^3 H](+)-pentazocine assay or by addition of a final concentration of 10 μM haloperidol to blank tubes for [^3 H]DTG assay. All tubes were incubated at 37° C. for 150 min in the [^3 H](+) -pentazocine assay or at 25° C. for 90 min in the [^3 H]DTG assay before termination of the reaction by rapid filtration over Whatman GF/B glass fiber filters that were presoaked in a solution of 0.5% polyethyleneimine for at least 1 hr prior to use. Filters were washed with three 4 ml volumes of cold Tris-HCl buffer.
Following addition of scintillation cocktail, samples were allowed to equilibrate for at least 4 hr. The amount of bound radioactivity was determined by liquid scintillation spectrometry using a Beckman LS 5000 TA liquid scintillation counter with an efficiency for tritium of approximately 60%. The results are reported as a percent (%) inhibition of binding at 10 μM.
(§2) Scatchard parameters and inhibition constants (Ki values) for the binding of test compounds were also calculated using the EBDA/LIGAND program (McPherson, J. Pharmacol. Meth. 1985, 14, 213-228), purchased from Elsevier/Biosoft, Inc. The Ki values are expressed as the mean or the mean ±SEM of at least two separate determinations performed in triplicate.

sigma receptors [2] = assay: sigma receptor binding, [^3 H]di(2-tolyl)guanidine (DTG), guinea pig brain membranes; details: inhibition of binding at 10 μM; [^3 H]DTG approximately 4 nM, 25° C., 90 min
Experimental: as §1
On the day of the assay, membrane aliquots were thawed, resuspended in fresh Tris-HCl buffer and stored on ice until use. […]
Following addition of scintillation cocktail, samples were allowed to equilibrate for at least 4 hr. The amount of bound radioactivity was determined by liquid scintillation spectrometry using a Beckman LS 5000 TA liquid scintillation counter with an efficiency for tritium of approximately 60%. […]
as §2

[3] = test system: apomorphine-induced climbing; assay: apomorphine-induced climbing assay; assay type: in vivo, mouse (male, Swiss-Webster); details: Mus musculus, ip; test compound i.p., apomorphine 5.5 mg/kg s.c.; rated 20-30 minutes post drug treatment; Dunnett's Test P<0.05; read-out: minimal effective dose (MED) for inhibition of apomorphine-induced climbing
Experimental: (§3) The compound of Example 4 was tested in vivo in the apomorphine-induced climbing assay and the apomorphine-induced stereotypy assay using the following procedures:
(§4) Male, Swiss-Webster mice (Taconic Farms, Germantown, N.Y.) weight 20-30 grams were grouped housed in colony facilities for a minimum of two days prior to testing. The colony facility was maintained on a 12 hour light/dark cycle (light: 0600-1800 hours) with water and Agway Prolab 100 rat chow available ad libitum. Each mouse was given an injection of test compound i.p. followed immediately by a s.c. injection of apomorphine 5.5 mg/kg or vehicle. All drugs were administered in a volume of 10 ml/kg body weight. The mice were then placed in individual cylindrical stainless steel climbing cages; 14.5 cm tall, 12 cm in diameter, with walls consisting of 1/16" O.D. bars spaced 0.8-1.0 cm apart, and were allowed to habituate to this environment for 20 minutes. […] Briefly, a (0) was scored for absence of any stereotypic behavior, infrequent stereotypic movements were scored as (1) , a (2) was scored for permanent sniffing and a score of (3) indicated intense and continuous stereotypic behavior. Treatment means for the 10 minute totals were calculated for climbing and stereotypy. […] A minimal effective dose (MED) for inhibition was determined for each parameter based on these analyses.

[4] = test system: apomorphine-induced stereotypy; assay: apomorphine-induced stereotypy assay; assay type: in vivo, mouse (male, Swiss-Webster); details: test compound i.p., apomorphine 5.5 mg/kg s.c.; rated 20-30 minutes post drug treatment
Experimental: as §3, §4

[5] = mean or mean ±SEM of at least two separate determinations performed in triplicate, 37° C., 150 min, read-out: [^3 H] (+)-Pentazocine Ki

SMILES	inhibition at 10 µM (sigma receptors [1]; 37° C., 150 min)	Ki (sigma receptors [1]; [5])	also measured
C[C@@H]1CCN(C)[C@@H](C)[C@]1(C)CCCO (relative stereo) [Example 1b, 3-(1,2,3,4-tetramethyl-3-piperidine)propanol]	42%		[3H]DTG Percent Inhibition (sigma receptors [2]): 39 percent (%)
C[C@@H]1CCN(C)[C@@H](C)[C@]1(C)CCCOCC1CC1 (relative stereo) [Example 1c, 3-[3-(cyclopropylmethoxy)propyl]1,2,3,4-tetramethylpiperidine]	94%		Ki (sigma receptors [1]): 197 ± 32 nM
C[C@@H]1CCN(C)[C@@H](C)[C@@H]1CCCOCC1CC1 (relative stereo) [Example 2c, 3-[3-(cyclopropylmethoxy)propyl]1,2,4-trimethylpiperidine]		5 ± 0.2 nM	
C[C@@H]1CCN[C@@H](C)[C@]1(C)CCCO (relative stereo) [Example 3c, 2.3.4-trimethyl-3-piperidinepropanol]		16700 nM	[3H]DTG Percent Inhibition (sigma receptors [2]): 23 percent (%)
CCCN1CC[C@@H](C)[C@@](C)(CCCOCC2CC2)[C@@H]1C (relative stereo) [Example 3f, 3-[3-(cyclopropylmethoxy)propyl]-2,3,4-trimethyl-1-propylpiperidine]	99%	45 ± 2 nM	
C[C@@H]1CCN(Cc2ccccc2)[C@@H](C)[C@]1(C)CCCOCC1CC1 (relative stereo) [Example 4, 3-[3-(cycloprolmethoxy)propyl]-2,3,4-trimethyl-1-(phenylmethyl)piperidine]		3.7 ± 0.4 nM	minimal effective dose [3]: 167 µmol/kg; effect on stereotypic behavior [4]: did not affect stereotypic behavior
CC(C)N1CC[C@@H](C)[C@@](C)(CCCO)[C@@H]1C (relative stereo) [Example 5a, 2,3. 4-trimethyl-l-(1-methylethyl)-3-piperidinepropanol]	17%		[3H]DTG Percent Inhibition (sigma receptors [2]): 30 percent (%)
CC(C)N1CC[C@@H](C)[C@@](C)(CCCOCC2CC2)[C@@H]1C (relative stereo) [Example 5b, 3-[3-(cyclopropylmethoxy)propyl]-2,3,4-trimethyl-1-(1-methylethyl)piperidine]	91%	435 ± 17 nM	
C=CCOCCC[C@]1(C)[C@H](C)CCN(C)[C@H]1C (relative stereo) [Example 6]	89%	559 ± 64 nM	
C#CCOCCC[C@]1(C)[C@H](C)CCN(C)[C@H]1C (relative stereo) [Example 7]	76%		
C[C@@H]1CCN(Cc2ccccc2)[C@@H](C)[C@]1(C)CCO (relative stereo) [Example 8b, 2,3,4-trimethyl-1-(phenylmethyl)-3-piperidineethanol]	85%		
C=CCOCC[C@]1(C)[C@H](C)CCN(Cc2ccccc2)[C@H]1C (relative stereo) [Example 9]	99%	300 ± 65 nM	
COCCC[C@]1(C)[C@H](C)CCN(C)[C@H]1C (relative stereo) [Example 13, 3-(3-methoxypropyl)-1,2,3,4-tetramethylpiperidine]		7670 nM	
